Data taken from PubChem BioAssay (NCI).
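A five-concentration, 48-hour dose response in 96-well plates underlies each endpoint, interpolated linearly between surrounding concentrations. TGI is the concentration that stops growth completely.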

Key:
Assay in all cases: growth of human tumour cells (NCI), 48 h
786-0 renal = system: 786-0 renal
A498 renal = system: A498 renal
A549 NSCLC = system: A549 NSCLC
ACHN renal = system: ACHN renal
CCRF-CEM leukemia = system: CCRF-CEM leukemia
COLO 205 colon = system: COLO 205 colon
EKVX NSCLC = system: EKVX NSCLC
HCC-2998 colon = system: HCC-2998 colon
HCT-116 colon = system: HCT-116 colon
HCT-15 colon = system: HCT-15 colon
HL-60(TB) leukemia = system: HL-60(TB) leukemia
HOP-62 NSCLC = system: HOP-62 NSCLC
HOP-92 NSCLC = system: HOP-92 NSCLC
HS 578T breast = system: HS 578T breast
HT29 colon = system: HT29 colon
IGROV1 ovarian = system: IGROV1 ovarian
K-562 leukemia = system: K-562 leukemia
KM12 colon = system: KM12 colon
LOX IMVI melanoma = system: LOX IMVI melanoma
M14 melanoma = system: M14 melanoma
MALME-3M melanoma = system: MALME-3M melanoma
MCF7 breast = system: MCF7 breast
MDA-MB-231 breast = system: MDA-MB-231 breast
MDA-MB-435 = system: MDA-MB-435
MDA-N = system: MDA-N
MOLT-4 leukemia = system: MOLT-4 leukemia
NCI-H226 lung = system: NCI-H226 lung
NCI-H23 lung = system: NCI-H23 lung
NCI-H522 lung = system: NCI-H522 lung
NCI/ADR-RES ovarian = system: NCI/ADR-RES ovarian
OVCAR-3 ovarian = system: OVCAR-3 ovarian
OVCAR-4 ovarian = system: OVCAR-4 ovarian
OVCAR-5 ovarian = system: OVCAR-5 ovarian
OVCAR-8 ovarian = system: OVCAR-8 ovarian
PC-3 prostate = system: PC-3 prostate
RPMI-8226 leukemia = system: RPMI-8226 leukemia
RXF 393 renal = system: RXF 393 renal
SF-295 CNS = system: SF-295 CNS
SF-539 CNS = system: SF-539 CNS
SK-MEL-2 melanoma = system: SK-MEL-2 melanoma
SK-MEL-5 melanoma = system: SK-MEL-5 melanoma
SK-OV-3 ovarian = system: SK-OV-3 ovarian
SN12C renal = system: SN12C renal
SNB-75 CNS = system: SNB-75 CNS
T-47D breast = system: T-47D breast
TK-10 renal = system: TK-10 renal
U251 CNS = system: U251 CNS
UACC-257 melanoma = system: UACC-257 melanoma
UACC-62 melanoma = system: UACC-62 melanoma
UO-31 renal = system: UO-31 renal

Measured: TGI

COC(=O)CCc1ccc2c(c1)CC1(Cc3ccccc3C1)C2
> 100 µM: all assays above
